# Test results taken from ChEMBL document CHEMBL4196225, “Precedence and Promise of Covalent Inhibitors of EGFR and KRAS for Patients with Non-Small-Cell Lung Cancer” (ACS Med Chem Lett, 2018).
# Assays:
# [1] = test system: GTPase KRas (Homo sapiens), P01116 [G12C]; assay: Binding affinity to hexahistidine-tagged recombinant human KRas G12C mutant expressed in Escherichia coli BL21 (DE3) assessed as first-order rate constant in presence of GDP
# [2] = test system: GTPase KRas (Homo sapiens), P01116 [G12C]; assay: Ratio of Kinact to Ki for hexahistidine-tagged recombinant human KRas G12C mutant expressed in Escherichia coli BL21 (DE3)
# GTPase KRas = GTPase KRas (Homo sapiens, UniProt P01116, G12C); assay: Binding affinity to hexahistidine-tagged recombinant human KRas G12C mutant expressed in Escherichia coli BL21 (DE3) in presence of GDP
# Sequence of GTPase KRas (P01116 whole entry G12C): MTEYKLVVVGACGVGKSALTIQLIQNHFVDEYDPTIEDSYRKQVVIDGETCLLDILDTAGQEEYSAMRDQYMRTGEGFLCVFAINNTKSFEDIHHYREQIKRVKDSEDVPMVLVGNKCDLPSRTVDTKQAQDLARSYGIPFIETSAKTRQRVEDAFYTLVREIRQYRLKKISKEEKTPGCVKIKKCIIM
# Sequence of GTPase KRas (Homo sapiens), P01116 [G12C] (P01116 whole entry G12C): as above
smiles,measurement,setting,value
C=CC(=O)N1CCN(c2ncnc3c(F)c(-c4c(O)cccc4F)c(Cl)cc23)CC1 (atropisomer S),Kinact,[1],> 0.066 s⁻¹
same,Ratio,[2],1100 M⁻¹ s⁻¹
same,Ki,GTPase KRas,> 64 µM
